Measurements published in US12522583B2, “Benzimidazole derivatives and aza-benzimidazole derivatives as Janus kinase 2 inhibitors and uses thereof” (Dana-Farber Cancer Institute, Inc., priority 2018, dated 2026).

How the values were obtained:
Assay in all cases: KINOMEscan
Assay type in all cases: binding
Conditions in all cases: read-out: percent control
AAK1 = AAK1 (Homo sapiens (Human), UniProt Q2M2I8)
Text: (§1) Example 2. In Vitro Kinase Selectivity Profiling of the Compounds of the Present Disclosure

[1] = target: ABL1(H396P)-nonphosphorylated (Homo sapiens (Human), UniProt P00519, H396P)
Text: as §1

ABL2 = ABL2 (Homo sapiens (Human), UniProt P42684)
Text: as §1

AKT2 = AKT2 (Homo sapiens (Human), UniProt P31751)
Text: as §1

BUB 1 = BUB 1 (Homo sapiens (Human), UniProt O43683)
Text: as §1

CDC2L5 = CDC2L5 (Homo sapiens (Human), UniProt Q14004)
Text: as §1

CDK4-cyclinD3 = CDK4-cyclinD3 (Homo sapiens (Human), UniProt P11802)
Text: as §1

CIT = CIT (Homo sapiens (Human), UniProt O14578)
Text: as §1

DCAMKL2 = DCAMKL2 (Homo sapiens (Human), UniProt Q8N568)
Text: as §1

DMPK2 = DMPK2 (Homo sapiens (Human), UniProt Q6DT37)
Text: as §1

EGFR(L858R) = EGFR(L858R) (Homo sapiens (Human), UniProt P00533, L858R)
Text: as §1

EPHB6 = EPHB6 (Homo sapiens (Human), UniProt O15197)
Text: as §1

ERBB2 = ERBB2 (Homo sapiens (Human), UniProt P04626)
Text: as §1

FER = FER (Homo sapiens (Human), UniProt P16591)
Text: as §1

FGFR4 = FGFR4 (Homo sapiens (Human), UniProt P22455)
Text: as §1

FLT1 = FLT1 (Homo sapiens (Human), UniProt P17948)
Text: as §1

FLT3(N841I) = FLT3(N841I) (Homo sapiens (Human), UniProt P36888, N841I)
Text: as §1

FLT3(R834Q) = FLT3(R834Q) (Homo sapiens (Human), UniProt P36888, R834Q)
Text: as §1

GAK = GAK (Homo sapiens (Human), UniProt O14976)
Text: as §1

GRK1 = GRK1 (Homo sapiens (Human), UniProt Q15835)
Text: as §1

HASPIN = HASPIN (Homo sapiens (Human), UniProt Q8TF76)
Text: as §1

KIT(A829P) = KIT(A829P) (Homo sapiens (Human), UniProt P10721, A829P)
Text: as §1

LIMK1 = LIMK1 (Homo sapiens (Human), UniProt P53667)
Text: as §1

LYN = LYN (Homo sapiens (Human), UniProt P07948)
Text: as §1

MKK7 = MKK7 (Homo sapiens (Human), UniProt O14733)
Text: as §1

MKNK1 = MKNK1 (Homo sapiens (Human), UniProt Q9BUB5)
Text: as §1

MRCKB = MRCKB (Homo sapiens (Human), UniProt Q9Y5S2)
Text: as §1

MST1 = MST1 (Homo sapiens (Human), UniProt Q13043)
Text: as §1

NEK3 = NEK3 (Homo sapiens (Human), UniProt P51956)
Text: as §1

NEK6 = NEK6 (Homo sapiens (Human), UniProt Q9HC98)
Text: as §1

NEK9 = NEK9 (Homo sapiens (Human), UniProt Q8TD19)
Text: as §1

PIK3CA(H1047L) = PIK3CA(H1047L) (Homo sapiens (Human), UniProt P42336, H1047L)
Text: as §1

PIK3CA(H1047Y) = PIK3CA(H1047Y) (Homo sapiens (Human), UniProt P42336, H1047Y)
Text: as §1

PIK3CD = PIK3CD (Homo sapiens (Human), UniProt O00329)
Text: as §1

PRKX = PRKX (Homo sapiens (Human), UniProt P51817)
Text: as §1

PYK2 = PYK2 (Homo sapiens (Human), UniProt Q14289)
Text: as §1

[2] = target: RSK1(Kin.Dom.1-N-terminal) (Homo sapiens (Human), UniProt Q15418)
Text: as §1

[3] = target: RSK4(Kin.Dom.1-N-terminal) (Homo sapiens (Human), UniProt Q9UK32)
Text: as §1

STK35 = STK35 (Homo sapiens (Human), UniProt Q8TDR2)
Text: as §1

WEE2 = WEE2 (Homo sapiens (Human), UniProt P0C1S8)
Text: as §1

PYK2, sequence (Q14289 whole entry): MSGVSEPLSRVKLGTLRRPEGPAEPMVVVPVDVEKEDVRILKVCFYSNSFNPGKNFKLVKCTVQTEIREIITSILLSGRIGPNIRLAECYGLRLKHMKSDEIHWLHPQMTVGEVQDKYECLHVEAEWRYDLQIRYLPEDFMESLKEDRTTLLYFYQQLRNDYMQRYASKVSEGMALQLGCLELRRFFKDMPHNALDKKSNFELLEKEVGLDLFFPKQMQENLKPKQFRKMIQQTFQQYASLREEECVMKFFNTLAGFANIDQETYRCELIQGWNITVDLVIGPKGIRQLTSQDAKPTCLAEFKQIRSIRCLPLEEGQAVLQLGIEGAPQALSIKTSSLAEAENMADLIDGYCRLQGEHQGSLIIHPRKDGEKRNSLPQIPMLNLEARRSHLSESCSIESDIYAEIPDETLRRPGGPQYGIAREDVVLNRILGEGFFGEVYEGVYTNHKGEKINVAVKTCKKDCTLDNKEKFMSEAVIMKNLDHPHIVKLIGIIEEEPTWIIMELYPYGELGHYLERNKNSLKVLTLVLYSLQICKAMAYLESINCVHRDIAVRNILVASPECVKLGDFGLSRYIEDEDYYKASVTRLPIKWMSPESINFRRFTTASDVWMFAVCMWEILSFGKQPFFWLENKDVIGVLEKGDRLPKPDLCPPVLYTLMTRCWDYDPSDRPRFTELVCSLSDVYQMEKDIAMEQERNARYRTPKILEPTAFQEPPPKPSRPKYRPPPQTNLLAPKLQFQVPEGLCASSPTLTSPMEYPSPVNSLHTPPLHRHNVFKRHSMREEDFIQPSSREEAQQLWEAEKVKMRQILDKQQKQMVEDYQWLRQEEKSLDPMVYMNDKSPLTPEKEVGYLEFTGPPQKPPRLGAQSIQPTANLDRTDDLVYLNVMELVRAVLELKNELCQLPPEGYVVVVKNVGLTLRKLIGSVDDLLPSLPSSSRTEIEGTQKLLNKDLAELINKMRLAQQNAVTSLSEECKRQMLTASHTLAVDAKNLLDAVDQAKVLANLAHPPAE
CDK4-cyclinD3, sequence (P11802 whole entry): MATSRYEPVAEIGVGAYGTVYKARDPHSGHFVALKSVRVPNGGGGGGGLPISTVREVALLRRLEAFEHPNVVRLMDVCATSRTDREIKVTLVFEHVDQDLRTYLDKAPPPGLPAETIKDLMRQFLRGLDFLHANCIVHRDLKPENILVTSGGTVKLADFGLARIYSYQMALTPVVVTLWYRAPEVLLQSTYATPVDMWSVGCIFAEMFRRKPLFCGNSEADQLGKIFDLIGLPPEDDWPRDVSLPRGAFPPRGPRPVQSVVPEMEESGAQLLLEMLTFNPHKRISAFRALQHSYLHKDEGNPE
CDK4-cyclinD3, sequence (P30281 whole entry partner): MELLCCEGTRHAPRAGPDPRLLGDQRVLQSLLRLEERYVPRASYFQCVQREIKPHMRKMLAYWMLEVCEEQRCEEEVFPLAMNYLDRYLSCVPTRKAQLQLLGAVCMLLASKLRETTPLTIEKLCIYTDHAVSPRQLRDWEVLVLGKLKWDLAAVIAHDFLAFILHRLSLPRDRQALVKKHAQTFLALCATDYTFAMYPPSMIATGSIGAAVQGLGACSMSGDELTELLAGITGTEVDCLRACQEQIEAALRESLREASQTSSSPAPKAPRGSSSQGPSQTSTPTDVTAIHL
CIT, sequence (O14578 whole entry): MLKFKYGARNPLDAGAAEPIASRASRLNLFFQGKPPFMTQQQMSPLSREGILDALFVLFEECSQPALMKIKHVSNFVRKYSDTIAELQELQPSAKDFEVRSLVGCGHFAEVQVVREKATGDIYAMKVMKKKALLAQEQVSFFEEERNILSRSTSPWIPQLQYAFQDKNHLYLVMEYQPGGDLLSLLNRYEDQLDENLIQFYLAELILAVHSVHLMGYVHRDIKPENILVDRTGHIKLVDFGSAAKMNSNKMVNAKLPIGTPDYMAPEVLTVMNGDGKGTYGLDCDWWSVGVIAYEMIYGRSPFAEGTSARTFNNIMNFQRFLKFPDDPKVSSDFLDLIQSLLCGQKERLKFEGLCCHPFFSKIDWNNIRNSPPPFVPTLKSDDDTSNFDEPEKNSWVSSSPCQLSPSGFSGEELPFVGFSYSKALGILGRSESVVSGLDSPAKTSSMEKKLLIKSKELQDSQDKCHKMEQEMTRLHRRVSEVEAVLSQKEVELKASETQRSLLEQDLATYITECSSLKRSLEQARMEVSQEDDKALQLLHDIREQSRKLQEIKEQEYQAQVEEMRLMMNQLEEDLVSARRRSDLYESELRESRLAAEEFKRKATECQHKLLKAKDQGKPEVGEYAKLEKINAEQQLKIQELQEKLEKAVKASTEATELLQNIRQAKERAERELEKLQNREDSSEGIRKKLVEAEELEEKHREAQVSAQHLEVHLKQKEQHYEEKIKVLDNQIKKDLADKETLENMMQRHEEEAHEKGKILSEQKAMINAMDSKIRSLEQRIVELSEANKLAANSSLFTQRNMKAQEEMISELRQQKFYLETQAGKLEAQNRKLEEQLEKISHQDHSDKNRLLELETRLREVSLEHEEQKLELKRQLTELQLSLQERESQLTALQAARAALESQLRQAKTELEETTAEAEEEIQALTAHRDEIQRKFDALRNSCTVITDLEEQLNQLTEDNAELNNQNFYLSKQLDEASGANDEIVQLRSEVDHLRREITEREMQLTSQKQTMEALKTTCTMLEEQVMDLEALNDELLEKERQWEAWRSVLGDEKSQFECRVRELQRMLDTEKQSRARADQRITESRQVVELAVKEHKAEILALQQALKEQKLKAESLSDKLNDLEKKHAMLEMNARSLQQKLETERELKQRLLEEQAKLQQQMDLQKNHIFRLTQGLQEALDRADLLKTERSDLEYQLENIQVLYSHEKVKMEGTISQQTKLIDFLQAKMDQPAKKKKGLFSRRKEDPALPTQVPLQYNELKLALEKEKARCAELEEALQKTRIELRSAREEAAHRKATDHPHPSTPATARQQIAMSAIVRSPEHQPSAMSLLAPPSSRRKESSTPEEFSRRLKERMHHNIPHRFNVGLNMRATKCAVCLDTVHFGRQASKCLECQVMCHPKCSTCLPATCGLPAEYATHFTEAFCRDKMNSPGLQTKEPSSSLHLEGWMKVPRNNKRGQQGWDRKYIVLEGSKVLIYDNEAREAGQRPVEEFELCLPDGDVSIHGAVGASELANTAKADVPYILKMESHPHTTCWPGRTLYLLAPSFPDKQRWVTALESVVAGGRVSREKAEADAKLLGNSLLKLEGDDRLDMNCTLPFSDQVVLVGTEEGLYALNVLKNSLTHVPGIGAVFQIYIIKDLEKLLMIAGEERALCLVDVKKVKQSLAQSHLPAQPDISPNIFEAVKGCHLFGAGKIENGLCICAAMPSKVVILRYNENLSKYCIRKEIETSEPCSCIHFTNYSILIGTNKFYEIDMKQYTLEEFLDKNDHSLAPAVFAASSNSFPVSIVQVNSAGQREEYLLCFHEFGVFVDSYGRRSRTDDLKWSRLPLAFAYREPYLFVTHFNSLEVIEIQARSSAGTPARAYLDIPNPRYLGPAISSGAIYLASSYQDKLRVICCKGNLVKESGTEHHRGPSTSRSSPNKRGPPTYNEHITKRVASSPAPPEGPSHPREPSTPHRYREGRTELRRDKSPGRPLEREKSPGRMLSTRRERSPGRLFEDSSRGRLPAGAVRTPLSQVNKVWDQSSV
EGFR(L858R), sequence (P00533 25-1210 L858R): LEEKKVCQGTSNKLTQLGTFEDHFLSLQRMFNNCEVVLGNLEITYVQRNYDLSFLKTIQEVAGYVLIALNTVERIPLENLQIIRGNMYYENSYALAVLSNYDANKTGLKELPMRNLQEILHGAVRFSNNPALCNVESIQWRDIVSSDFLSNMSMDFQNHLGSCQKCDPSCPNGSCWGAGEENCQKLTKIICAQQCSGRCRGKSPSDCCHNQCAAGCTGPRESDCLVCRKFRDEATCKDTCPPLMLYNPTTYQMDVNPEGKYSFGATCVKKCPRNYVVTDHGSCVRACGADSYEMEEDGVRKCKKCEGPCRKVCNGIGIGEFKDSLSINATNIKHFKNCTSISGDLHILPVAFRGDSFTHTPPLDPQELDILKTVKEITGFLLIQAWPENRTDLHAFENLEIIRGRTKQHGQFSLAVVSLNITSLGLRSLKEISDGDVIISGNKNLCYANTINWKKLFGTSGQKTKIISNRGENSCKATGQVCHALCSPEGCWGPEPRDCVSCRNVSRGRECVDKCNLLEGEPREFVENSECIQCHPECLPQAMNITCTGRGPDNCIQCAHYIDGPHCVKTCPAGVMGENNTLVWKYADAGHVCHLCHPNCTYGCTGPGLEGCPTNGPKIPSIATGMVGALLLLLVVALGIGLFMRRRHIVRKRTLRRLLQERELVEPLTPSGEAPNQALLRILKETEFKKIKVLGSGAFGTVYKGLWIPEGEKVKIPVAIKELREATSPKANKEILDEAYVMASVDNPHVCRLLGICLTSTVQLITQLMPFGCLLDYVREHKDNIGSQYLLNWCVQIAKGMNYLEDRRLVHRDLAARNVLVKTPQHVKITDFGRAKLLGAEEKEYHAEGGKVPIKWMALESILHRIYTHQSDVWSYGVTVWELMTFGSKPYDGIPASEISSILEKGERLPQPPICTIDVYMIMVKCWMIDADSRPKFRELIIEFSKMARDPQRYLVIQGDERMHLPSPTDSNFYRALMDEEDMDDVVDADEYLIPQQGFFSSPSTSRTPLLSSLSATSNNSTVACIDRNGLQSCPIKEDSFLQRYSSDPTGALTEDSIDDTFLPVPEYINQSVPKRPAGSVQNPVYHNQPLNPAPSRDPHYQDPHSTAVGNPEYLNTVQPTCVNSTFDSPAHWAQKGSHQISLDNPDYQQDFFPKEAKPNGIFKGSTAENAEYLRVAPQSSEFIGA
RSK4(Kin.Dom.1-N-terminal), sequence (Q9UK32 73-330 limits assumed): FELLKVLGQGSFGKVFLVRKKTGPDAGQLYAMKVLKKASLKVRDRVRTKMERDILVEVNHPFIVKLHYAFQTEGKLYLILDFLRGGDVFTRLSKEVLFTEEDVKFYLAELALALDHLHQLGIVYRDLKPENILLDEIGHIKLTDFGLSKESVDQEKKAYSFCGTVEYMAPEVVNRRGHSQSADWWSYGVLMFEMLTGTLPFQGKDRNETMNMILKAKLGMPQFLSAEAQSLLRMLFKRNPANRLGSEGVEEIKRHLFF

Row | Structure (SMILES) | remaining binding at 1 µM (AAK1) [%] | remaining binding at 1 µM [1] [%] | remaining binding at 1 µM (ABL2) [%] | remaining binding at 1 µM (AKT2) [%] | remaining binding at 1 µM (BUB 1) [%] | remaining binding at 1 µM (CDC2L5) [%] | remaining binding at 1 µM (CDK4-cyclinD3) [%] | remaining binding at 1 µM (CIT) [%] | remaining binding at 1 µM (DCAMKL2) [%] | remaining binding at 1 µM (DMPK2) [%] | remaining binding at 1 µM (EGFR(L858R)) [%] | remaining binding at 1 µM (EPHB6) [%] | remaining binding at 1 µM (ERBB2) [%] | remaining binding at 1 µM (FER) [%] | remaining binding at 1 µM (FGFR4) [%] | remaining binding at 1 µM (FLT1) [%] | remaining binding at 1 µM (FLT3(N841I)) [%] | remaining binding at 1 µM (FLT3(R834Q)) [%] | remaining binding at 1 µM (GAK) [%] | remaining binding at 1 µM (GRK1) [%] | further results
1 | CCN1CCN(Cc2ccc(Nc3nc4ccc(Oc5ccnc(NC(C)=O)c5)cc4n3C)cc2C(F)(F)F)CC1 [Compound I-2] | 100 | 0.05 | 32 | 100 | 100 | 59 | 72 | 90 | 89 | 89 | 83 | 72 | 95 | 91 | 100 | 6.3 | 11 | 100 | 100 | 82 | remaining binding at 1 µM (HASPIN): 100%; remaining binding at 1 µM (KIT(A829P)): 0%; remaining binding at 1 µM (LIMK1): 100%; remaining binding at 1 µM (LYN): 44%; remaining binding at 1 µM (MKK7): 80%; remaining binding at 1 µM (MKNK1): 95%; remaining binding at 1 µM (MRCKB): 100%; remaining binding at 1 µM (MST1): 93%; remaining binding at 1 µM (NEK3): 77%; remaining binding at 1 µM (NEK6): 93%; remaining binding at 1 µM (NEK9): 87%; remaining binding at 1 µM (PIK3CA(H1047L)): 73%; remaining binding at 1 µM (PIK3CA(H1047Y)): 62%; remaining binding at 1 µM (PIK3CD): 72%; remaining binding at 1 µM (PRKX): 100%; remaining binding at 1 µM (PYK2): 33%; remaining binding at 1 µM [2]: 100%; remaining binding at 1 µM [3]: 100%; remaining binding at 1 µM (STK35): 100%; remaining binding at 1 µM (WEE2): 100%
2 | CCN1CCN(Cc2ccc(Nc3nc4ccc(Oc5ccnc(NC(C)=O)c5)c(C)c4n3C)cc2C(F)(F)F)CC1 [Compound I-6, N-(4-(2-(4-((4-ethylpiperazin-1-yl)methyl)-3-(trifluoromethyl)phenylamino)-1,7-dimethyl-1H-benzo[d]imidazol-6-yloxy)pyridin-2-yl)acetamide] | 96 | 1.1 | 5.3 | 100 | 100 | 3.8 | 95 | 79 | 100 | 83 | 97 | 95 | 100 | 100 | 100 | 4.2 | 14 | 57 | 98 | 85 | remaining binding at 1 µM (HASPIN): 93%; remaining binding at 1 µM (KIT(A829P)): 0%; remaining binding at 1 µM (LIMK1): 65%; remaining binding at 1 µM (LYN): 12%; remaining binding at 1 µM (MKK7): 94%; remaining binding at 1 µM (MKNK1): 80%; remaining binding at 1 µM (MRCKB): 100%; remaining binding at 1 µM (MST1): 100%; remaining binding at 1 µM (NEK3): 92%; remaining binding at 1 µM (NEK6): 99%; remaining binding at 1 µM (NEK9): 68%; remaining binding at 1 µM (PIK3CA(H1047L)): 85%; remaining binding at 1 µM (PIK3CA(H1047Y)): 86%; remaining binding at 1 µM (PIK3CD): 88%; remaining binding at 1 µM (PRKX): 100%; remaining binding at 1 µM (PYK2): 8.8%; remaining binding at 1 µM [2]: 99%; remaining binding at 1 µM [3]: 93%; remaining binding at 1 µM (STK35): 100%; remaining binding at 1 µM (WEE2): 100%
